Patent EP0351418B1, “VIRAL VECTOR SYSTEM FOR THE INTRODUCTION OF FOREIGN DNA […] INTO GA[…]” (SYNERGEN, INC., priority 1987, dated 1988)

Test system: HVT
Experiment: Growth and plaque formation of HVT in CEF in the presence of AraT
Assay type: cell-based, herpesvirus of turkeys (HVT)
Excerpt: In HSV-infected cells, ¹²⁵IdC is incorporated into DNA only after it has been phosphorylated by the viral TK as described by Summers and Summers, J. Virol. 24: 314-318 (1977), specifically incorporated herein by reference. Moreover, growth of HVT in CEF is inhibited by the drug AraT, whereas uninfected CEF appears to be unaffected. AraT (1-beta-D-arabinofuranosyl-thymine obtained from Calbiochem) is lethal to cells only once it is incorporated into the DNA where it acts as a chain-terminator. Again by analogy to HSV, AraT-resistance is likely to be due to mutations in the thymidine kinase gene.
AraT-resistant variants occur spontaneously in populations of FC126, and are isolated by growing cell-free virus as described by Calnek et al., Avian Dis. 16:52-56 (1972), specifically incorporated herein by reference, in CEF in the presence of 100 ug/ml AraT. Specifically, 150 mm tissue culture dishes are seeded with 2 X 10⁷ cells of secondary CEF. Two hours later the medium is removed, and 2 X 10⁴ pfu of cell-free HVT are adsorbed for 30 minutes. After adsorption, 30 ml of medium containing 100 ug/ml of AraT is added. Cells are fluid-changed every two days, always with AraT, and monolayers are screened for plaques 4-5 days post-infection at 40-fold magnfication using an inverted microscope. One AraT-resistant variant ATR° was found in 2 X 10⁵ pfu screened initially. Subsequent experiments have yielded AraT resistant HVT at least that frequency. ATR° remains stable for at least nine passages in the absence of AraT.
In addition, wild-type HVT has a growth advantage over the AraT-resistant variants. These differences between the wild-type HVT and HVT that are AraT-resistant, form the basis for a marker-rescue assay that allows for the identification of the region of DNA, and thus the gene which confers resistance to AraT. DNA from the AraT resistant HVT (10 ug of total infected-cell DNA) is co-transfected with individual DNA clones (200 ng of plasmid DNA or 1 ug of phage DNA) representing the genome of HVT. […]

Structure (SMILES): Cc1cn([C@@H]2O[C@H](CO)[C@@H](O)[C@@H]2O)c(=O)[nH]c1=O [AraT, 1-beta-D-arabinofuranosyl-thymine]
- effect on uninfected CEF (AraT, uninfected CEF): unaffected
- growth of HVT in CEF (in the presence of AraT): inhibited
- plaque-forming ability of wild-type HVT (in the presence of AraT): completely inhibits
